Legend:
Assay in all cases: Protein kinase inhibition assay
Type in all cases: biochemical
[1] = molecular target: CDK3/cyclinE(h) (Homo sapiens, UniProt Q00526); details: read-out: percent residual activity of CDK3/cyclinE(h)
Description: (§1) Certain compounds were tested for activity in protein kinase inhibition assays. All substrates were dissolved and diluted to working stocks in de-ionized water, apart from histone H1 (10× working stock in 20 mM MOPS pH 7.0), PDKtide (10× working stock in 50 mM Tris pH 7.0) ATF2 (which is typically stored at a 20× working stock in 50 mM Tris pH 7.5, 150 mM NaCl, 0.1 mM EGTA, 0.03% Brij-35, 50% glycerol, 1 mM benzamidine, 0.2 mM PMSF and 0.1% R-mercaptoethanol), KKLNRTLSFAEPG (SEQ ID NO:203) and RRRLSFAEPG (SEQ ID NO:204) (50 mM HEPES pH 7.4) and GGEEEEYFELVKKKK (SEQ ID NO:205) (20 mM MOPS pH 7.0). All kinases were pre-diluted to a 10× working concentration prior to addition into the assay. The composition of the dilution buffer for each kinase is detailed below.
(§2) In a final reaction volume of 25 μl, CDK3/cyclinE (h) (5-10 mU) is incubated with 8 mM MOPS pH 7.0, 0.2 mM EDTA, 0.1 mg/ml histone H1, 10 mM MgAcetate and [gamma-33P-ATP] (specific activity approx. 500 cpm/pmol, concentration as required). The reaction is initiated by the addition of the MgATP mix. After incubation for 40 minutes at room temperature, the reaction is stopped by the addition of 5 μl of a 3% phosphoric acid solution. 10 μl of the reaction is then spotted onto a P30 filtermat and washed three times for 5 minutes in 75 mM phosphoric acid and once in methanol prior to drying and scintillation counting.

[2] = molecular target: EGFR(L861Q)(h) (Homo sapiens, UniProt P00533, L861Q); details: read-out: percent residual activity of EGFR(L861Q)(h)
Sequence of EGFR(L861Q)(h) (P00533 25-1210 L861Q): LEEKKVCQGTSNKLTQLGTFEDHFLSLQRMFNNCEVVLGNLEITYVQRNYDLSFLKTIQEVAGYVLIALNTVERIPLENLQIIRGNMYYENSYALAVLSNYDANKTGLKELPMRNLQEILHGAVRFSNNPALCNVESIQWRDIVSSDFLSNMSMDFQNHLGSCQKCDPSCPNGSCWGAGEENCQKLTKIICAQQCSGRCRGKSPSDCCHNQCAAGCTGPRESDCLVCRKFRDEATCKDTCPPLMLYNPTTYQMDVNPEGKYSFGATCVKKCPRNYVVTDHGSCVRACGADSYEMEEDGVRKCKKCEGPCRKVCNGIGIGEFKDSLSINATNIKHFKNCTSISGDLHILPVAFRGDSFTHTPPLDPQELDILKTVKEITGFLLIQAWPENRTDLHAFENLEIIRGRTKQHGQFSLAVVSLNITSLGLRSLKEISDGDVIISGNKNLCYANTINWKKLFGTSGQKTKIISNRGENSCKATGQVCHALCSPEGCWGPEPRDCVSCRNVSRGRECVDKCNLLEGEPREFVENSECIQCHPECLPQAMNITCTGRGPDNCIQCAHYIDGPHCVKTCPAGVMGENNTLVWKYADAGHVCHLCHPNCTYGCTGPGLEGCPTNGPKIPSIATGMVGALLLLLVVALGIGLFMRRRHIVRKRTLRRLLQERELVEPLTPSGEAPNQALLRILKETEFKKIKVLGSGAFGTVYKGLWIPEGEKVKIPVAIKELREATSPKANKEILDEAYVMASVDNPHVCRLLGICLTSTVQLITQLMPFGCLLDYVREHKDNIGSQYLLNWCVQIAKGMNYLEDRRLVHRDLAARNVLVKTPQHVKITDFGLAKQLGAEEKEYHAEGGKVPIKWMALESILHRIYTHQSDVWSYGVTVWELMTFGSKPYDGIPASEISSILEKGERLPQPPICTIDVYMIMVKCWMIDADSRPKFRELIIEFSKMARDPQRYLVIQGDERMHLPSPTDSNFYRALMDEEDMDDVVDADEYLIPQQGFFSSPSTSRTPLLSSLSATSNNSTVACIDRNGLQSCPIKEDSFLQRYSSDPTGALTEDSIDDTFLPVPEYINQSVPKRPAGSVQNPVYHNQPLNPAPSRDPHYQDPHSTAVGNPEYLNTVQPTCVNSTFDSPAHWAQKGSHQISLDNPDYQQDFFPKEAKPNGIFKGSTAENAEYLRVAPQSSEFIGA
Description: as §1
as §2, with “EGFR (L861 Q)” for “CDK3/cyclinE”, “poly(Glu, Tyr) 4:1,” for “histone H1,”, “Filtermat A” for “P30 filtermat”

[3] = molecular target: FGFR2(h) (Homo sapiens, UniProt P21802); details: read-out: percent residual activity of FGFR2(h)
Sequence of FGFR2(h) (P21802 22-821): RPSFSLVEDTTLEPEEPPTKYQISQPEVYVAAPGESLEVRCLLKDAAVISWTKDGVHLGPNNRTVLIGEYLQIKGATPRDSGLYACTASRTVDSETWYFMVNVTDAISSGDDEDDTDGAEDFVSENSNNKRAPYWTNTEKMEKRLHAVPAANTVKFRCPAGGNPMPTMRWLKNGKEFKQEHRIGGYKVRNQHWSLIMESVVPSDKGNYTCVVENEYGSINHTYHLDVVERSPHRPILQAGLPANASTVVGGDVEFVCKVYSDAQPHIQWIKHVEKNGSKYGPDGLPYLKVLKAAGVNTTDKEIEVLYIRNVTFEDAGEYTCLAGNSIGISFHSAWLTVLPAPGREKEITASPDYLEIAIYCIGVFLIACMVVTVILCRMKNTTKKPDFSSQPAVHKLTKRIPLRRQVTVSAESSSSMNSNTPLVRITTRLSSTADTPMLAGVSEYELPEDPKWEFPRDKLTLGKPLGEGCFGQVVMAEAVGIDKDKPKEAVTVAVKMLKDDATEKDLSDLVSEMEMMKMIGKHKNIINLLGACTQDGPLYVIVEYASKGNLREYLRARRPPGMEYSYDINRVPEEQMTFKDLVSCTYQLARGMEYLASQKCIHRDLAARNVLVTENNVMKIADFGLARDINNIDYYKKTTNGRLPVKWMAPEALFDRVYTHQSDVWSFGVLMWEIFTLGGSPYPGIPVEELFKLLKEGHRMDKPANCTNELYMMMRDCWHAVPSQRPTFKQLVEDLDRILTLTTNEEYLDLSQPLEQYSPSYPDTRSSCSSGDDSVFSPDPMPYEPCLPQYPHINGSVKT
Description: as §1
as §2, with “FGFR2” for “CDK3/cyclinE”, “EDTA, 2.5 mM MnCl2,” for “EDTA,”, “poly(Glu, Tyr) 4:1,” for “histone H1,”, “Filtermat A” for “P30 filtermat”

[4] = molecular target: Flt3(D835Y)(h) (Homo sapiens, UniProt P36888, D835Y); details: read-out: percent residual activity of Flt3(D835Y)(h)
Description: as §1
as §2, with “Flt3 (D835Y)” for “CDK3/cyclinE”, “50 μM EAIYAAPFAKKK (SEQ ID NO:206),” for “0.1 mg/ml histone H1,”

[5] = molecular target: Hck(h) (Homo sapiens, UniProt P08631); details: read-out: percent residual activity of Hck(h)
Sequence of Hck(h) (P08631 whole entry): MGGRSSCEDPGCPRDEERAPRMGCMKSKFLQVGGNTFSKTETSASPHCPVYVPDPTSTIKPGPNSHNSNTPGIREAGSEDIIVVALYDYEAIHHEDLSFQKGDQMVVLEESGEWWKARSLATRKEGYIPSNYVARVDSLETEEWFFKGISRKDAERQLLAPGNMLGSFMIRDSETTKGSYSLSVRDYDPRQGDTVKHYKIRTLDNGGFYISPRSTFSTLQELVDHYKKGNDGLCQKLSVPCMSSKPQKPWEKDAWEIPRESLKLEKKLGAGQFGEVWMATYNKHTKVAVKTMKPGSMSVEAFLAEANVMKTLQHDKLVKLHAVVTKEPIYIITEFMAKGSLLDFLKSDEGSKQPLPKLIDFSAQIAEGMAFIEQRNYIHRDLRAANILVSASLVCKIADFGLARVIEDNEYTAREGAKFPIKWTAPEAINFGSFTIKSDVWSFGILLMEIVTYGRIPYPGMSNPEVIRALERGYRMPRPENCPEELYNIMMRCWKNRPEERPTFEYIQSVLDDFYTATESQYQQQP
Description: as §1
In a final reaction volume of 25 μl, Hck (h) (5-10 mU) is incubated with 8 mM MOPS pH 7.0, 0.2 mM EDTA, 250 μM KVEKIGEGTYGVVYK (Cdc2 peptide) (SEQ ID NO:211), 10 mM MgAcetate and [gamma-33P-ATP] (specific activity approx. 500 cpm/pmol, concentration as required). The reaction is initiated by the addition of the MgATP mix. After incubation for 40 minutes at room temperature, the reaction is stopped by the addition of 5 μl of a 3% phosphoric acid solution. […]

[6] = molecular target: MEK1(h) (Homo sapiens, UniProt Q02750); details: read-out: percent residual activity of MEK1(h)
Sequence of MEK1(h) (Q02750 whole entry): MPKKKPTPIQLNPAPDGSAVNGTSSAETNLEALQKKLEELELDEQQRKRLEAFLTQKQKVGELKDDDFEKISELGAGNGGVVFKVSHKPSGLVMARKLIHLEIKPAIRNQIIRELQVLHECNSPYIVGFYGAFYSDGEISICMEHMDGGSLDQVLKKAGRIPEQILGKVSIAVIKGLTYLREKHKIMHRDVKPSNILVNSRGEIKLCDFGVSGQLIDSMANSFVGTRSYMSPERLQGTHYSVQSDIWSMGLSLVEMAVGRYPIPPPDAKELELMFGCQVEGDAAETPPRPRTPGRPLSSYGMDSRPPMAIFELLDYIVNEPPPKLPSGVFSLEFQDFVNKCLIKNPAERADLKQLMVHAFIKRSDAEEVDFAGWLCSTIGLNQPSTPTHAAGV
Description: as §1
The reaction is initiated by the addition of the MgATP. After incubation for 40 minutes at room temperature, 5 μl of this incubation mix is used to initiate a MAPK2 (m) assay, which is described on page 12 of this book.

[7] = molecular target: ROCK-II(h) (Homo sapiens, UniProt O75116); details: read-out: percent residual activity of ROCK-II(h)
Sequence of ROCK-II(h) (O75116 whole entry): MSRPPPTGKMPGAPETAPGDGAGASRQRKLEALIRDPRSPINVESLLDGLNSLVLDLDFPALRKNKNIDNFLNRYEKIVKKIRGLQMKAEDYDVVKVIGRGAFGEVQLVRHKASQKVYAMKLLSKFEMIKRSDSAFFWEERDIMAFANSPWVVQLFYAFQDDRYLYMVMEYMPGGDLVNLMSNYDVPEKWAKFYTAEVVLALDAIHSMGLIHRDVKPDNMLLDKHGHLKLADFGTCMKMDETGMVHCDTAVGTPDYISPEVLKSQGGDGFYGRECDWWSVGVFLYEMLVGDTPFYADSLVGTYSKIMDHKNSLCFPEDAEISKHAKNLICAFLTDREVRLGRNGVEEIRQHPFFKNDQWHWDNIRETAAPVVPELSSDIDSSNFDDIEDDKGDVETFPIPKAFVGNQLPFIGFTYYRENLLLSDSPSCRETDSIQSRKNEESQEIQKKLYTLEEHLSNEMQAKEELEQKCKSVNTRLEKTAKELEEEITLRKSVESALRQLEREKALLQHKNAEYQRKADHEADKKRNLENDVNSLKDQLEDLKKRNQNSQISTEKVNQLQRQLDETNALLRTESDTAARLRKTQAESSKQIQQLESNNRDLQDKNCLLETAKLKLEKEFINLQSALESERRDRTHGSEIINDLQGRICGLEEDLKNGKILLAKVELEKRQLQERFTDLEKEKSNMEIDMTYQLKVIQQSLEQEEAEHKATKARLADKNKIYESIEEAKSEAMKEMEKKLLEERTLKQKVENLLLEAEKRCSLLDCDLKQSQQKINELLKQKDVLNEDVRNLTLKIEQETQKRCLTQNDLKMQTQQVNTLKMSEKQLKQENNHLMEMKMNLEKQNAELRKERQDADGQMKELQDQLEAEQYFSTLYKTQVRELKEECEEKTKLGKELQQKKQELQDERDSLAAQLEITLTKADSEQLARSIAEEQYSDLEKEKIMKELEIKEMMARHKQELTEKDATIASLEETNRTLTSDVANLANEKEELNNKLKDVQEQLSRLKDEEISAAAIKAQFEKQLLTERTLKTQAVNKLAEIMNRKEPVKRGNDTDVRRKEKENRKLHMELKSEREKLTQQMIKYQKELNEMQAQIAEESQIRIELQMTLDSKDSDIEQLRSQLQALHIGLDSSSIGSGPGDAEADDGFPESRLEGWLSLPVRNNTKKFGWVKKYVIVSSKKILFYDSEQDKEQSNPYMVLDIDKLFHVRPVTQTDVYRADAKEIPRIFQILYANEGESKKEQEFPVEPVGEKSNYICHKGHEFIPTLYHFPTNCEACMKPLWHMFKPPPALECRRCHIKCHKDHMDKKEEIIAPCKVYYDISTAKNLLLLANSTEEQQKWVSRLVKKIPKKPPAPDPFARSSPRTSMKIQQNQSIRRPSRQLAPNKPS
Description: as §1
as §2, with “ROCK-II” for “CDK3/cyclinE”, “50” for “8”, “Tris” for “MOPS”, “7.5,” for “7.0, 0.2 mM EDTA,”, “[…] EGTA, 30 μM […] (SEQ ID NO:222),” for “mg/ml histone H1,”, “[y-33P-ATP]” for “[gamma-33P-ATP]”

Sequence of CDK3/cyclinE(h) (Q00526 whole entry): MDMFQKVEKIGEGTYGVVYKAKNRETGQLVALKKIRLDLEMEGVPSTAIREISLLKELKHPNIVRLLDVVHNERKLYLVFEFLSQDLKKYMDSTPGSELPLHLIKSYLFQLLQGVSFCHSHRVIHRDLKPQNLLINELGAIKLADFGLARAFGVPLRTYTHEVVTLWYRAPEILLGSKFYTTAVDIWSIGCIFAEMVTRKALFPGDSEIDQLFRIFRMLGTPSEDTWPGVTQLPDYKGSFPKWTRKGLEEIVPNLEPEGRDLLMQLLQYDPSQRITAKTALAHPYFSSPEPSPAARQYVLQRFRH
Sequence of CDK3/cyclinE(h) (P24864 whole entry partner): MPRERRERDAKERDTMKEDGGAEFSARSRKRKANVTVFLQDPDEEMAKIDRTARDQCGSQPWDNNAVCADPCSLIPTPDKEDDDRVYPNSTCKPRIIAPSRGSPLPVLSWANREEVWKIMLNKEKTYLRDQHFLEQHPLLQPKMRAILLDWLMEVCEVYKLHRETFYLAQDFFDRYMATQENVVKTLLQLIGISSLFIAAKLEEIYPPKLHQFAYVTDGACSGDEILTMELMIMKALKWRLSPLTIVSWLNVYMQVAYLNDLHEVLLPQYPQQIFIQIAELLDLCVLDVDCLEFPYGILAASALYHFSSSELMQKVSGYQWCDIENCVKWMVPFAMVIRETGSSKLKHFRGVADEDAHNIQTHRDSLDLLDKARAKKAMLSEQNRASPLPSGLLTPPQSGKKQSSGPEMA

Compound	remaining activity at 2.5 µM [1]	remaining activity at 2.5 µM [2]	remaining activity at 2.5 µM [3]	remaining activity at 2.5 µM [4]	remaining activity at 2.5 µM [5]	remaining activity at 2.5 µM [6]	remaining activity at 2.5 µM [7]
CN1CCCC1CCNC(=O)c1cn2c3c(c(N4CCC(c5cnccn5)C4)c(F)cc3c1=O)Oc1cc3ccccc3cc1-2 (centres unmarked) [Compound A-1]	93%	94%	76%	36%	84%	87%	64%
CC(=O)N1CCN(c2ccc3c(=O)c(C(=O)NCCN4CCCC4)c4n(C)c5ccccc5n4c3n2)CC1 [Compound B-1]	103%	109%	89%	78%	89%	90%	115%

Source: patent US20070117770A1, “Human ribosomal DNA (rDNA) and ribosomal RNA (rRNA) nucleic acids and uses thereof” (Cylene Pharmaceuticals, Inc., priority 2005, published 2007)
